1 molecule from ChEMBL document CHEMBL3585315, “Discovery of mammalian target of rapamycin (mTOR) kinase inhibitor CC-223” (J Med Chem, 2015) can be followed below.

The species named for series [1] is Mus musculus. The series can be described thus: animal or person. Particulars: PC-3, po, 8 h, read-out: INH; call rule not given here.
A short description of series [2]: Genotoxicity in mouse erythrocytes by micronucleus test. Particulars: erythrocyte. In kind it is toxicity, cell-based.
The species entered for series [3] is Mus musculus. The experiment in a line: animal or person. Particulars: PC-3, po, 4 h, read-out: INH.
The species named for series [4] is Mus musculus. The series can be described thus: animal or person. Particulars: PC-3, po, 4 h, read-out: INH. This is another data set of the same source.
The nature of series [5]: Cmax in rat at 5 mg/kg, po. In kind it is ADME, organism-based. More on the design: dose 5 mg/kg, route oral. Particulars: in vivo.
The test system of series [6] is Salmonella typhi. The experiment in a line: Mutagenicity in Salmonella typhi by Ames test. Format: toxicity, organism-based. Particulars: salmonella enterica subsp. enterica serovar […].
The species entered for series [7] is Mus musculus. The series can be described thus: animal or person. Particulars: PC-3, po, 24 h, read-out: INH.
The test system of series [8] is PC-3. Particulars: Homo sapiens, TDE = time-dependent effect.
In series [9] the test system is PC-3. The series can be described thus: Antitumor activity against human PC3 cells xenografted in mouse assessed as tumor volume reduction at 25 mg/kg, po qd for 21 days relative to control. More on the design: scale not given: the % may be the effect or the level left. Format: functional.
The species entered for series [10] is Mus musculus. The experiment in a line: animal or person. Particulars: PC-3, po, 8 h, read-out: INH. This is another data set of the same source.
Series [11] deals with PC-3. Particulars: Homo sapiens.
Series [12] is described as follows: Clearance in rat at 2 mg/kg, iv. In kind it is ADME, organism-based. Particulars: in vivo.
The target in series [13] is Vascular endothelial growth factor receptor 3 (Homo sapiens, UniProt P35916). The experiment in a line: Inhibition of Flt4 (unknown origin).
Series [14] is filed under the species Mus musculus. The series can be described thus: animal or person. Particulars: PC-3, po, 24 h, read-out: INH. The source holds these as a separate data set.
A short description of series [15]: Oral bioavailability in rat at 5 mg/kg. Format: ADME, organism-based. Particulars: in vivo.
Series [16] is described as follows: Inhibition of CYP450 (unknown origin) up to 10 uM. Particulars: human. In kind it is ADME.
A short description of series [17]: AUC (0 to infinity) in rat at 5 mg/kg, po. In kind it is ADME, organism-based. More on the design: dose 5 mg/kg, time infinity, route oral. Particulars: in vivo.

Sequence of Vascular endothelial growth factor receptor 3 (P35916 whole entry): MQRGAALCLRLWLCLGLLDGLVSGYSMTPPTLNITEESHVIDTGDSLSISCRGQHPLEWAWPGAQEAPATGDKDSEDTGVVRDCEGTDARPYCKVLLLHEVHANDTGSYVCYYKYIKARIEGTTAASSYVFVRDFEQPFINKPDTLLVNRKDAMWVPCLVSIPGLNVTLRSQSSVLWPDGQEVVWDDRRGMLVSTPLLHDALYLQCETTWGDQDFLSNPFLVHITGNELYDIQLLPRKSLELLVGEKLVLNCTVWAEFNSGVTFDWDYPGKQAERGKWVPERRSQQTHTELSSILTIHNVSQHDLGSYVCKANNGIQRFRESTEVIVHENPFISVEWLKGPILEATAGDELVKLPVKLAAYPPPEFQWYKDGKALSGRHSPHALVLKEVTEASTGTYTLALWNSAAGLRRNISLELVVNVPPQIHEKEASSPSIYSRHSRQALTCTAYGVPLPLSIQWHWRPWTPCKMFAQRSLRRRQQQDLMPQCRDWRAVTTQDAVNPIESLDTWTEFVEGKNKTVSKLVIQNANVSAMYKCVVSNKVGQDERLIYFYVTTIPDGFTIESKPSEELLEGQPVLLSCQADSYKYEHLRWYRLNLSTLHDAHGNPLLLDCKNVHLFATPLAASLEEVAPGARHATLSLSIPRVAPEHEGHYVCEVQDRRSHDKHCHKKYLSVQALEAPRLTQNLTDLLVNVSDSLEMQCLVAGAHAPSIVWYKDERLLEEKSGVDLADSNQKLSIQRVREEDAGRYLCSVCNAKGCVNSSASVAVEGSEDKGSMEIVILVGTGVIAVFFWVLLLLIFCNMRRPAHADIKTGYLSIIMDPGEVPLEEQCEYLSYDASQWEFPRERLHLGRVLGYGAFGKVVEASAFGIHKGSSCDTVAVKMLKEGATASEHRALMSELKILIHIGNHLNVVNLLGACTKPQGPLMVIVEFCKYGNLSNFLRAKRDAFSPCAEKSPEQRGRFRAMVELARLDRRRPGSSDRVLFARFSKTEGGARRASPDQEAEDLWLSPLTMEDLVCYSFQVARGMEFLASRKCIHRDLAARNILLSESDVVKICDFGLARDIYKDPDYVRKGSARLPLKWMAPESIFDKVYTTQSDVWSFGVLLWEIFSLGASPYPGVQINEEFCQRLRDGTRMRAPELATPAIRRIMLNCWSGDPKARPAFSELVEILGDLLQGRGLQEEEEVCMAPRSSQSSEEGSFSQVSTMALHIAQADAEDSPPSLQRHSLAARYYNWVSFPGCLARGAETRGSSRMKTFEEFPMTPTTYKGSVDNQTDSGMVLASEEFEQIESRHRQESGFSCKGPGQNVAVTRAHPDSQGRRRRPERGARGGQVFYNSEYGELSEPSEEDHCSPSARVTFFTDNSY

Turning to `CO[C@H]1CC[C@H](N2C(=O)CNc3ncc(-c4ccc(C(C)(C)O)nc4)nc32)CC1` [ONATASERTIB], the inhibition in vivo at 100 mg/kg is 82% in [1]; 91% in [3]; 80% in [4]; 86% in [7]; 92% in series [10]; 91% in [14]. Besides, the Activity result in [2] is “Non-toxic”; in series [6], “Non-toxic”; in series [9], 87%. For the same molecule, in series [5], the peak concentration (Cmax) was 2900 nM. Further, the TGI entry in series [8] was “tde”; in series [11], “Dose-dependent effect”. The clearance in series [12] came to 4.9 mL/min/kg. In series [13], this molecule came in with a 50% inhibitory concentration (IC50) of 0.651 µM. Further, the bioavailability in series [15] was 59%. Also, the “inhibition (INH)” value in series [16] is “Not Active”. Moreover, in series [17], the AUC(0-inf) stood at 26 µM·h.
